The source of these data is patent US8637681B2, “Pyrrolyl substituted dihydroindol-2-one derivatives, preparation methods and uses thereof” (Qilu Pharmaceutical Co., Ltd., priority 2010, dated 2014).

Data set [1] concerns arterial ring angiogenesis in rats. Nature of the data set: Inhibitory actions on arterial ring angiogenesis in rats. In kind it is cell-based. As to conditions: Rattus norvegicus, area covered by micrangiums vs control well, read-out: Inhibitory rate (%); for inhibition at 0.2 µg/mL: 0.2 μg/ml; for inhibition at 1 µg/mL: 1 μg/ml; for inhibition at 5 µg/mL: 5 μg/ml. Summed up:
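Rat thoracic aorta cut into 1 mm rings, embedded in Matrigel and cultured at 37 °C with compound; medium and drug renewed every 3 days. Microvessel sprouting area imaged by microscopy; inhibition (%) = (control area − drug area)/control area × 100.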

Data set [2] in a line: Cytotoxicity test (SRB), A549. In kind it is cell-based. As to conditions: human, A549 non-small cell lung cancer cells. The method in brief:
(§1)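 Cells seeded at 4000/well in DMEM with 10% FBS, adhered overnight, then treated 72 h at 37° C, 5% CO2 with compound (final DMSO 0.25%). TCA-fixed and stained with SRB, A540 read. IC50 (μM) calculated by Logit method.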

Data set [3] is described as follows: Cytotoxicity test (SRB), Hela. The following applies: human, Hela cervical cancer cells. Type of data set: cell-based. The method in brief: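 A549, Hela and A431 cells seeded at 4000/well, adhered overnight, then exposed to compound dilutions (final DMSO 0.25%) for 72 h at 37° C., 5% CO2. SRB read-out: absorbance at 540 nm; IC50 (μM) calculated by Logit method.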

The nature of data set [4]: Cytotoxicity test (SRB), A431. In kind it is cell-based. As to conditions: human, A431 skin cancer cells. Summed up:
as §1

Data set [5] concerns human colon cancer HT 29 transplanted tumor. Nature of the data set: Nude mice transplanted tumor test. Further details: key to d21 Vave ± SD (average tumor volume): tumor volume TV = ½×a×b² (a, b = major, minor diameter), in mm³. As to conditions: for Dead animal number / inhibition in vivo at 80 mg/kg / d21 Wave ± SD (average bodyweight of nude mice) / d21 Vave ± SD (average tumor volume) / d21 RTV ± SD (relative tumor volume): 80 mg/kg intragastrically each day for 20 days; for Dead animal number: dead/total animals; for inhibition in vivo at 80 mg/kg: Mus musculus, HT-29, po, 504 h, (1−T/C)×100%, read-out: Tumor inhibition rate d21 (%); for inhibition in vivo at 80 mg/kg / d21 Wave ± SD (average bodyweight of nude mice) / d21 Vave ± SD (average tumor volume) / d21 RTV ± SD (relative tumor volume): d21; for d0 Wave ± SD (average bodyweight of nude mice): d0, at grouping before administration (baseline); for d21 Vave ± SD (average tumor volume): HT 29 in nude mice, in mm³ (unit assumed); for d21 RTV ± SD (relative tumor volume): RTV=Vt/V0. Type of data set: in vivo, female Balb/cA nude mice. Summed up:
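Female Balb/cA nude mice bearing HT 29 colon tumour fragments in the right axilla, grouped at about 120 mm^3, received 80 mg/kg intragastrically daily for 20 days; vehicle was water with 0.1% Tween 80. Tumour volume (½×a×b^2) measured 2-3 times weekly, expressed as relative tumour volume Vt/V0.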

In data set [6] the test system is three kinds of tumor cells (A549, Hela, A431). The experiment in a line: Cytotoxicity test, summary over the three tumor cell lines. In kind it is cell-based, human. As to conditions: compared with positive control Sunitinib. The protocol: Cytotoxicity of the compounds of the present invention was tested with human non-small cell lung cancer cells A549, human cervical cancer Hela cells, human skin cancer cells A431. The test was performed by referring to the method described by Rusnak et al (Rusnak D. W., et al., Cell Prolif., 2007, 40, 580-94).
In Dulbecco's Modified Eagle Medium (DMEM) comprising 10% fetal bovine serum, 2 mM glutamine and non-essential amino acids, cells were cultured at 37° C. in 5% CO2 cell incubator. Trypsin/ethylenediamine tetraacetic acid (EDTA) were used to harvest cells in cell culture bottle. The cells were added to a 96-well cell culture plate, 4000/well (0.1 ml medium), adhering wall overnight, 0.1 ml of the diluted solution of the compounds to be tested was added, the final concentration of DMSO was 0.25%. The cell culture plate was incubated at 37° C., 5% CO2 conditions for 72 h. The change of cellular morphology was observed under microscope, and then 50 μl of 50% (mass/volume) trichloroacetic acid (TCA) was added to each well to fix cells. The final concentration of TCA was 10%. It stood for 5 min, than was placed in 4° C. refrigerator for 1 h, the wells of the culture plate were washed with deionized water for 5 times to remove TCA, drained, dried in air until no wet trace was observed. 100 μl of 0.4% (mass/volume) SRB was added to each well, stood at room temperature for 10 min. The liquid in each well was discarded, and then the wells were washed with 1% acetic acid for 5 times, dried in air, extracted with 150 μl of 10 mM Tris base (trihydroxymethylaminomethane, pH 10.5). The absorption at a wavelength of 540 nm was measured. The IC50 (μM) of the compound was calculated using Logit method.

Usually IC50 stands for the midpoint of a concentration-inhibition curve.

In the case of `Cc1[nH]c(/C=C2\C(=O)Nc3ccc(F)cc32)c(C)c1NC(=O)CCN1CCCCC1` [Compound 13, N-{5-[5-fluoro-2-oxo-1,2-dihydro-indol-(3Z)-ylidenemethyl]-2,4-dimethyl-1H-pyrrol-3-yl}-3-(piperidin-1-yl)propionamide], in data set [1], the inhibition at 0.2 µg/mL was found to be 93%, the inhibition at 1 µg/mL was found to be 100% and the inhibition at 5 µg/mL was determined as 100%. The IC50 at 72 h in data set [2] is more than 30 µM. In data set [3], this molecule displayed an IC50 at 72 h of more than 30 µM. In data set [4], this molecule registered an IC50 at 72 h of 8.69 µM. In data set [5], the Dead animal number is 0/6, the inhibition in vivo at 80 mg/kg is 71.1%, the “d0 Wave ± SD (average bodyweight of nude mice)” value (“d0 Wave ± SD” below) was found to be 19.1 ± 0.85 and the “d21 Wave ± SD (average bodyweight of nude mice)” value (“d21 Wave ± SD” below) worked out at 20.1 ± 0.88. In data set [5], the “d21 Vave ± SD (average tumor volume)” value turned out to be 253.8 ± 56.4 and the “d21 RTV ± SD (relative tumor volume)” value amounted to 2.08 ± 0.59. The “Cytotoxicity to tumor cells (in words)” value in data set [6] was “certain toxicity to some cells”.
In the case of `CCN(CC)CCC(=O)Nc1c(C)[nH]c(/C=C2\C(=O)Nc3ccc(Br)cc32)c1C` [Compound 3, N-{5-[5-bromo-2-oxo-1,2-dihydro-indol-(3Z)-ylidenemethyl]-2,4-dimethyl-1H-pyrrol-3-yl}-3-(N,N-diethylamino)propionamide], in data set [1], the inhibition at 0.2 µg/mL came to 93%, the inhibition at 1 µg/mL was 100% and the inhibition at 5 µg/mL turned out to be 100%. Also, the IC50 at 72 h in data set [2] was more than 30 µM. The molecule further gave a 50% inhibitory concentration (IC50) at 72 h in data set [3] of 5.08 µM. In data set [4], this molecule showed a half-maximal inhibitory concentration (IC50) at 72 h of more than 30 µM. In data set [5], the Dead animal number is reported as 0/6, the inhibition in vivo at 80 mg/kg was found to be 86.4%, the “d0 Wave ± SD” value amounted to 19.3 ± 0.41 and the “d21 Wave ± SD” value was 17.3 ± 0.56. For the same molecule, in data set [5], the “d21 Vave ± SD (average tumor volume)” value is given as 120.6 ± 40.2 and the “d21 RTV ± SD (relative tumor volume)” value is on record as 0.98 ± 0.36. The “Cytotoxicity to tumor cells (in words)” value in data set [6] was “certain toxicity to some cells”.
Take `Cc1[nH]c(/C=C2\C(=O)Nc3ccc(F)cc32)c(C)c1NC(=O)CN1CCOCC1` [Compound 19, N-{5-[5-fluoro-2-oxo-1,2-dihydro-indol-(3Z)-ylidenemethyl]-2,4-dimethyl-1H-pyrrol-3-yl}-2-(morpholin-4-yl)acetamide]: in data set [1], the inhibition at 0.2 µg/mL worked out at 89%. For the same molecule, the inhibition at 1 µg/mL in data set [1] stood at 100%. In data set [1], the inhibition at 5 µg/mL was 100%. The IC50 at 72 h is more than 30 µM in data set [2], more than 30 µM in data set [3] and 7.6 µM in data set [4]. Also, the “Cytotoxicity to tumor cells (in words)” value in data set [6] is given as “certain toxicity to some cells”.
Consider `CCN1CCN(CC(=O)Nc2c(C)[nH]c(/C=C3\C(=O)Nc4ccc(F)cc43)c2C)CC1` [Compound 18, N-{5-[5-fluoro-2-oxo-1,2-dihydro-indol-(3Z)-ylidenemethyl]-2,4-dimethyl-1H-pyrrol-3-yl}-2-(4-ethylpiperazin-1-yl)acetamide], for which, in data set [1], the inhibition at 0.2 µg/mL stood at 99%, the inhibition at 1 µg/mL came out at 100% and the inhibition at 5 µg/mL stood at 100%. For the same molecule, in data set [2], the IC50 at 72 h was more than 30 µM. The molecule also yielded an IC50 at 72 h in data set [3] of 4.15 µM. The molecule also gave an IC50 at 72 h in data set [4] of more than 30 µM. Moreover, in data set [5], the Dead animal number is 0/6, the inhibition in vivo at 80 mg/kg is 90.1%, the “d0 Wave ± SD” value was 19.1 ± 0.48 and the “d21 Wave ± SD” value came to 18.9 ± 0.69. In data set [5], the “d21 Vave ± SD (average tumor volume)” value was 86.2 ± 45.3 and the “d21 RTV ± SD (relative tumor volume)” value is on record as 0.73 ± 0.45.
